Assay results reported in patent US4268503A, “Antibacterial composition” (Fujisawa Pharmaceutical Co., Ltd., priority 1979, dated 1981).

Key:
Format in all cases: cell-based
[1] = test system: Klebsiella pneumoniae 8; experiment: Test 8: synergistic activity in various combination ratios (isobologram, growth); design: key: the symbol "+" means that the test microorganism grew; the symbol "-" means that the test microorganism did not grow
Description: Into a Nutrient broth (Difco) containing prescribed amounts of monosodium salt of 3-(N-formyl-N-hydroxyamino)-propylphosphonic acid and gentamicin sulfate, was inoculated 0.5% of 10-fold dilution of cultured broth of pathogen which was cultured overnight in Nutrient broth (Eiken). After the incubation was carried out at 37° C. for 18 hours, the growth of the test organism was observed.

[2] = test system: Staphylococcus epidermidis 1601-1; experiment: Tests 2 and 3: MIC and synergism (FIC) in vitro; settings: 16011, S. epidermidis 1601-1, Nutrient agar, 10^5 cells/ml, 37° C., 20 hours
Description: (§1) On a Nutrient agar (Difco) containing prescribed amount of each of monosodium salt of 3-(N-formyl-N-hydroxyamino)propylphosphonic acid, monosodium salt of ampicillin and a mixture of 3-(N-formyl-N-hydroxyamino)propylphosphonic acid and monosodium salt of ampicillin (1:1 by weight), there was streaked a loopful of cultured broth of each pathogen, which was cultured overnight in Nutrient broth (Difco), in a concentration of 10^5 cells/ml. After the incubation was carried out at 37° C. for 20 hours, MIC values were determined.
(§2) FIC values and FIC Index were calculated in substantially the same manner as described in Test 1.
(§3) Synergistic activity of 3-(N-formyl-N-hydroxyamino)propylphosphonic acid and cefazolin; that of 3-(N-formyl-N-hydroxyamino)propylphosphonic acid and ticarcillin; and that of 3-(N-formyl-N-hydroxyamino)propylphosphonic acid and nocardicin A were tested in vitro in substantially the same manner as described in the above Test 2.

[3] = test system: Proteus mirabilis 1432-75; experiment: Tests 2 and 3: MIC and synergism (FIC) in vitro; settings: Proteus mirabilis, 143275, 20 h
Description: as §1, §2, §3

[4] = test system: Enterobacter cloacae 1401-4; experiment: Tests 2 and 3: MIC and synergism (FIC) in vitro; settings: 14014, E. cloacae 1401-4, Nutrient agar, 10^5 cells/ml, 37° C., 20 hours
Description: as §1, §2, §3

[5] = test system: Serratia marcescens 1421-4; experiment: Tests 2 and 3: MIC and synergism (FIC) in vitro; settings: 14214, S. marcescens 1421-4, Nutrient agar, 10^5 cells/ml, 37° C., 20 hours
Description: as §1, §2, §3

[6] = test system: Salmonella typhimurium 1406; experiment: Tests 2 and 3: MIC and synergism (FIC) in vitro; settings: Salmonella enterica, 20 h
Description: as §1, §2, §3

[7] = test system: Klebsiella pneumoniae NCTC 418; experiment: Tests 2 and 3: MIC and synergism (FIC) in vitro; settings: NCTC418, 20 h
Description: as §1, §2, §3

gentamicin was tested, and the “growth of test microorganism” value ([1]; gentamicin sulfate 0.001, phosphonic acid 0 mcg/ml) was “+”, the “growth of test microorganism” value ([1]; gentamicin sulfate 0.003, phosphonic acid 0 mcg/ml) was “+” and the “growth of test microorganism” value ([1]; gentamicin sulfate 0.006, phosphonic acid 0 mcg/ml) was “+”. The “growth of test microorganism” value ([1]; gentamicin sulfate 0.01, phosphonic acid 0 mcg/ml) was “+”, the “growth of test microorganism” value ([1]; gentamicin sulfate 0.025, phosphonic acid 0 mcg/ml) was “+” and the “growth of test microorganism” value ([1]; gentamicin sulfate 0.05, phosphonic acid 0 mcg/ml) was “-”.

In the case of `CC1(C)S[C@@H]2[C@H](NC(=O)[C@H](C(=O)O)c3ccsc3)C(=O)N2[C@H]1C(=O)O` [ticarcillin], the MIC [2] is reported as 3.13 µg/mL, the MIC [3] is reported as 0.78 µg/mL and the MIC [4] is reported as 50 µg/mL. The MIC [5] was 25 µg/mL, the MIC [6] was 1.56 µg/mL and the MIC [7] was 100 µg/mL.

`O=CN(O)CCCP(=O)(O)O` [3-(N-formyl-N-hydroxyamino)propylphosphonic acid] was tested, and the “growth of test microorganism” value ([1]; gentamicin sulfate 0, phosphonic acid 0.78 mcg/ml, 37° C., 18 hours) was “+”, the “growth of test microorganism” value ([1]; gentamicin sulfate 0, phosphonic acid 1.56 mcg/ml) was “+” and the “growth of test microorganism” value ([1]; gentamicin sulfate 0, phosphonic acid 3.13 mcg/ml) was “+”. The “growth of test microorganism” value ([1]; gentamicin sulfate 0, phosphonic acid 6.25 mcg/ml) was “+”, the “growth of test microorganism” value ([1]; gentamicin sulfate 0, phosphonic acid 12.5 mcg/ml) was “+” and the “growth of test microorganism” value ([1]; gentamicin sulfate 0, phosphonic acid 25 mcg/ml) was “-”.
